# Structures can show the parent of a compound that is named as a salt.
# Biological target: T1, human Nav1.8 (hNav1.8) ion channel (Homo sapiens, UniProt Q9Y5Y9)
# T1 construct: expressed in transfected cells
# Experiment: Inhibition of human Nav1.8 stably expressed in SH-SY-5Y cells (membrane potential dye fluorescence assay)
# Format: cell-based
# Details: SH-SY-5Y hNav1.8 cells; FLIPR membrane potential dye; 10 μM pyrethroid, 250 nM TTX; test concentration range 100 μM-0.05 μM; read-out: hNav1.8 IC50
# T1 sequence (Q9Y5Y9 whole entry): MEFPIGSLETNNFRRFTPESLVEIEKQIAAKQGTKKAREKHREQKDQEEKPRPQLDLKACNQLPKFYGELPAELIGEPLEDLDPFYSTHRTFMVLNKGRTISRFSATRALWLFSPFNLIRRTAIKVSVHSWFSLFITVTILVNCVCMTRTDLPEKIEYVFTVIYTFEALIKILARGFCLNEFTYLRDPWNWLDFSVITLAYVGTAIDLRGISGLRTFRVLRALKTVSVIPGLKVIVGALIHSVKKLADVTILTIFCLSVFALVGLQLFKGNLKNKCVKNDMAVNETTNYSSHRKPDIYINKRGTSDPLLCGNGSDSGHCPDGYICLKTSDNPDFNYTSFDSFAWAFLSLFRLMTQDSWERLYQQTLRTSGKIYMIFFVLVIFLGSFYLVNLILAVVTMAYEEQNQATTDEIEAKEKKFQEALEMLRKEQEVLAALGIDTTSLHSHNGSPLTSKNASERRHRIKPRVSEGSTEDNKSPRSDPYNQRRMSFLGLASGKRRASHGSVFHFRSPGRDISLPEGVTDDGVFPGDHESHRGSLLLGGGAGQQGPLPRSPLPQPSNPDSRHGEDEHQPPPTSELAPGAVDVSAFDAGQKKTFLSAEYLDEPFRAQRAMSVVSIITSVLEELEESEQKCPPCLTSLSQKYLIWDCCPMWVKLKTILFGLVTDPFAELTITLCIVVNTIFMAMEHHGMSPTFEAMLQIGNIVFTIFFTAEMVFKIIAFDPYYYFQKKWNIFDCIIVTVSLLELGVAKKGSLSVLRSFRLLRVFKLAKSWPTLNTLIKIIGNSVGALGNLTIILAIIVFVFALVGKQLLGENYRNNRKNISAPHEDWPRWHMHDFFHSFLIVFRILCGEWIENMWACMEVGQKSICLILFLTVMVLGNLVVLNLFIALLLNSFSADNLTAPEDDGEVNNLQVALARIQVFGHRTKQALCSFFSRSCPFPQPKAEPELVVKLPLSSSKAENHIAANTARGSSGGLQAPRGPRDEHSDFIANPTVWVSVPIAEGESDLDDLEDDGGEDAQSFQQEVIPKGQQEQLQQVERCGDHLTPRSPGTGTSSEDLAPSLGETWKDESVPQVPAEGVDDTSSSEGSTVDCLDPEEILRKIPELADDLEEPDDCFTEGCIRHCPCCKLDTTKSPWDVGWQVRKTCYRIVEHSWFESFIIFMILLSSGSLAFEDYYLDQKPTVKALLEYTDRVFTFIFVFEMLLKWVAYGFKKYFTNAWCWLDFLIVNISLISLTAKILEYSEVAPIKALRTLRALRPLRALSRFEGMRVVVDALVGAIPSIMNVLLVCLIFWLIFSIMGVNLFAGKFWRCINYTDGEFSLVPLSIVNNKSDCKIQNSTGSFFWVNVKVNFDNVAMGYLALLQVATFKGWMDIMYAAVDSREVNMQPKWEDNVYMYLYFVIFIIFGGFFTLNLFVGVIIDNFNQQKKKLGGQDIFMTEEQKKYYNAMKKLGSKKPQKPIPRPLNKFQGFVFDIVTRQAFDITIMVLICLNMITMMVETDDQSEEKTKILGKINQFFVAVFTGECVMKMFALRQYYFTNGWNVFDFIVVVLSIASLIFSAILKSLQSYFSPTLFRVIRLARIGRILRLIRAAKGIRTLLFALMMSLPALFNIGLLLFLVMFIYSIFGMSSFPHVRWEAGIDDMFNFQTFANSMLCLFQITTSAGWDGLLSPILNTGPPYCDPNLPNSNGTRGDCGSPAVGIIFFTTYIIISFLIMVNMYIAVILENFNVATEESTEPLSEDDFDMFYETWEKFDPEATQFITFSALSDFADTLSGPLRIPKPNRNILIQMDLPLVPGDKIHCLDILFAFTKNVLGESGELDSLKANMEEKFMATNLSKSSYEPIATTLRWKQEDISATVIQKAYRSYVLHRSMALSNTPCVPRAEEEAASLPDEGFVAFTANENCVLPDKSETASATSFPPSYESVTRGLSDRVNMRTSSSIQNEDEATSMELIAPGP
row,Structure (SMILES),IC50
1,"CC(c1ccccn1)N1CC2CC1CN2C(=O)c1ccc(Oc2cccc(C#N)c2)cc1 (stereo not drawn) [Example 180, 3-{4-[5-(1-Pyridin-2-yl-ethyl)-2,5-diaza-bicyclo[2.2.1]heptane-2-carbonyl]-phenoxy}-benzonitrile]",4.65 µM
2,"CC(c1ccccn1)N1CC2CC1CN2C(=O)c1ccc(Oc2ccc(F)cc2)cc1 (stereo not drawn) [Example 181, [4-(4-Fluoro-phenoxy)-phenyl]-[5-(1-pyridin-2-yl-ethyl)-2,5-diaza-bicyclo[2.2.1]hept-2-yl]-methanone]",9.93 µM
3,"CC(c1ccccc1Cl)N1CC2CC1CN2C(=O)Nc1ccc(Oc2ccc(F)cc2)nc1 (stereo not drawn) [Example 182, 5-[1-(2-Chloro-phenyl)-ethyl]-2,5-diaza-bicyclo[2.2.1]heptane-2-carboxylic acid [6-(4-fluoro-phenoxy)-pyridin-3-yl]-amide methanesulfonate salt]",0.27 µM

# — US20100204224A1, “AZACYCLIC COMPOUNDS AS INHIBITORS OF SENSORY NEURONE SPECIFIC SODIUM CHANNELS” (priority 2005, published 2010)
